system: HepG2; assay: Hepatoprotective activity against nitrofurantoin-induced cytotoxicity in human HepG2 cells after 2 hrs by MTT assay; type: functional, cell-based; conditions: HepG2, 2 h

SMILES	EC50 [µM]
CO[C@H]1O[C@]2(C=C(C)C(=O)O2)C[C@@H]1[C@H]1CC[C@@]2(C)[C@@H]3CC[C@H]4C(C)(C)C(=O)C=C[C@@]45C[C@@]35CC[C@]12C	123
CC(C)=CC(=O)C[C@@H](C)[C@H]1CC[C@@]2(C)[C@@H]3CC[C@H]4C(C)(C)C(=O)C=C[C@@]45C[C@@]35CC[C@]12C	109
CC(C)=CC(=O)C[C@@H](C)[C@H]1CC[C@@]2(C)[C@@H]3CC[C@H]4[C@](C)(C(=O)O)[C@@H](O)C[C@H](O)[C@@]45C[C@@]35CC[C@]12C [GARDENOLIC ACID B]	66.4
COc1cc(C2Oc3cc([C@H]4Oc5cc(O)cc(O)c5C(=O)[C@@H]4O)ccc3OC2CO)ccc1O (some centres undefined) [SILIBININ]	75.7

— ChEMBL document CHEMBL1152971, “Cycloartane triterpenoids from Kleinhovia hospita” (J Nat Prod, 2009)
